Legend:
[1] = system: phosphatidylethanolamine (PE); assay: Single induction plate assay: IFN-γ by CER T cells on plate-bound phosphatidylethanolamine (control); assay type: cell-based
Description: FIGS. 19A-19C: CER T cells are activated and produce IFN-γ in response to phosphatidylserine engagement in a cell-free in vitro system. FIG. 19A: IFN-γ production in response phosphatidylserine (PS). IFN-γ production was induced in CER-1236 and CER-1234 T cells stimulated with PS (FIG. 19A), but not with phosphatidylethanolamine (PE) (FIG. 19B). […] FIG. 19C: CER1236 T cells are capable of recursive stimulation in vitro. Recursive IFN-γ induction with 3 serial stimulations at the indicated time points following a 24-hour rest after the first stimulation.
FIG. 33A-33C: CER T cells are activated and produce IFN-γ in response to phosphatidylserine engagement in a cell-free in vitro system. FIG. 33A: IFN-γ production in response phosphatidylserine (PS). IFN-γ production was induced in CER-1236 and CER-1234 T cells stimulated with PS (FIG. 33A), but not with phosphatidylethanolamine (PE) (FIG. 33B). […]
CER T-cell activation was assessed by measuring induction of IFN-gamma by plate- and cell-based assays. […] CER T cells were added and IFN-γ levels were measured 24 hours after ligand exposure by ELISA. EC50 concentrations were determined by nonlinear regression (agonist vs. response-variable slope (4 parameters)). […] Cell-based assay: cytokine induction was assessed by multiparametric ELISA using conditioned supernatants harvested after 120 hours from the cytotoxicity assay described below.

E7 TCR T cells = assay: APC-like function after co-culture with PS-positive E7-positive SCC152 cells: HLA-DR/CD25 on E7 TCR T cells; assay type: cell-based; details: for antigen presentation function versus untransduced T cells: FIG. 52, FIG. 53; for antigen presentation function, overall (FIGS. 50-54): repeated experiments; for activation (HLA-DR) of autologous E7 TCR T cells: after co-culture with E7-positive/PS-positive SCC152 cells, vs untransduced T cells or anti-CD19 CAR T cells
Description: (§1) FIGS. 25A-25B: CER1236 T cells activate E7 TCR T cells via presentation of tumor cell-derived E7 antigen in an HLA-I-dependent manner. […] FIG. 25B: In a separate experiment, induction of HLA-DR on E7 TCR cells following co-culture of CER-1236 with E7 oncoprotein positive/PS-positive SCC152 cells was blocked by HLA-I blocking antibody, but not a control isotype antibody. Bars depict percentage of E7 TCR T cells that express the activation marker, HLA-DR. Error bars show SEM.
as §1, with “36A-36B:” for “25A-25B:”, “6B:” for “25B:”
(§2) CER1183, CER1161, CER1234 or CER1236 T cells were cultured alone or co-cultured with phosphatidylserine-positive HPV E7 oncoprotein-positive cells (TMEM30A−/− SCC152) for 48 hours, followed by positive selection of T cells and co-culture for a 4 days with cell trace violet labeled-HPV E7 TCR T cells.
as §2, with “(TMEM30A−/−SCC152)” for “(TMEM30A−/− SCC152)”, “for” for “for a”, “days (FIG. 51, left graph) or 6 days (FIG. 51, right graph)” for “days”
CER1183, CER1161, CER1234 or CER1236 T cells were cultured alone or co-cultured with phosphatidylserine-positive HPV E7 oncoprotein-positive cells (TMEM30A−/− SCC152) for 48 hours, followed by positive selection of T cells and co-culture for 4 days with cell trace violet labeled-HPV E7 TCR T cells.
CER1183, CER1161, CER1234 or CER1236 T cells were cultured alone or co-cultured with phosphatidylserine-positive HPV E7 oncoprotein-positive cells (TMEM30A−/−SCC152) for 48 hours, followed by positive selection of T cells and co-culture for 6 days with cell trace violet labeled-HPV E7 TCR T cells.
Antigen-presenting cell (APC)-like function of CER T cells was assessed after a 48-hour co-culture with phosphatidylserine-positive E7 oncoprotein-positive cells. T cells were separated and co-cultured for 4 days with cell trace violet-labeled E7 TCR T cells. The activation marker HLA-DR on E7 TCR T cells was analyzed using flow cytometry. Phosphatidylserine-positive SCC152 squamous cell carcinoma cells were engineered by knockout of the TMEM30A gene (a flippase chaperone required for PS internalization). The role of HLA-I in APC-like function was determined by performing the same experiment in the presence of HLA-I blocking or the corresponding isotype antibodies.
Phosphatidylserine exposure on A2780 ovarian cancer cells upon treatment with the small molecule PARP inhibitors niraparib or olaparib was evaluated by annexin v staining to determine the appropriate drug dose. Phosphatidylserine targeting Tim-4 CER constructs designed to enhance cytotoxicity and target-dependent tumor cell fragment uptake were engineered. CER T cell designs were as follows: CER-1234 (Tim-4/CD28/TLR2/CD3z; SEQ ID NO:18); CER-1236 (Tim-4/CD28/CD3z/TLR2; SEQ ID NO:19); and CER-1250 (Tim-4 binding mutant/CD28/TLR2/CD3z; SEQ ID NO:24). CER-1250 has the same intracellular signaling domains as […] but has a mutated IgV domain with AAAA substitution to abrogate phosphatidylserine binding. Niraparib (0.5 μM) and olaparib (1.5 μM) were used to expose phosphatidylserine on the surface of A2780 cells for CER T cell recognition and cytotoxicity, T-cell activation, and cytokine responses were evaluated. Uptake of antigen by CER-1236 T cells was modeled with human papilloma virus E7 antigen-expressing squamous carcinoma (SCC152) TMEM30A phospholipid flippase knockout cells. […]

## CER-1234: chimeric Tim4 receptor: Tim4 binding domain-CD28tm-CD28-TLR2 TIR-CD3z, SEQ ID NO:18; tested as transduced T cells
[1]
  IFN-γ production in response to phosphatidylethanolamine: but not to phosphatidylethanolamine (PE)
E7 TCR T cells
  antigen presentation function versus untransduced T cells: display better antigen presentation function than untransduced T cells
  antigen presentation function, overall (FIGS. 50-54): did not show any antigen presentation function over untransduced T cells in some experiments

## CER-1236: chimeric Tim4 receptor: Tim4 binding domain-CD28tm-CD28-CD3z-TLR2 TIR, SEQ ID NO:19; tested as transduced T cells
[1]
  IFN-γ production in response to phosphatidylethanolamine: but not to phosphatidylethanolamine (PE)
E7 TCR T cells; FIG. 50, FIG. 51, FIG. 54
  HLA-DR MFI versus untransduced T cells: significant difference in HLA-DR MFI
E7 TCR T cells
  antigen presentation function versus untransduced T cells: display better antigen presentation function than untransduced T cells
  activation (HLA-DR) of autologous E7 TCR T cells: induced HLA-DR on E7 TCR cells
  antigen presentation function, overall (FIGS. 50-54): consistently had better antigen presentation function compared to untransduced T cells
E7 TCR T cells; HLA-I blocking vs isotype antibody
  HLA class I dependence of E7 TCR activation: dependent on antigen presentation via the HLA class I system
E7 TCR T cells; listed as CER1236
  activation (HLA-DR) of autologous E7 TCR T cells: supported greater activation of autologous E7 TCR T cells
E7 TCR T cells; exposed to TMEM30A″ SCC152 cancer cells relative to CER-1236 T cells alone
  increase of activation status of E7 TCR T cells: 5 fold

— patent US20250127896A1, “CHIMERIC TIM4 RECEPTORS AND USES THEREOF” (CERO THERAPEUTICS HOLDINGS, INC., priority 2021, published 2025)
